Experiments:
[1] = system: IL-1β release from human monocytes-derived macrophages; assay: Suppression of IL-1β release from human monocytes-derived macrophages (LPS priming, nigericin release, ELISA); assay type: cell-based
Experimental: (§1) Peripheral blood mononuclear cells (PBMCs) were isolated from blood of 6 healthy human donors and differenciates in macrophages using GM-CSF (5 ng/ml) for 5 days. They were stimulated with 1 μg/mL with lipopolysaccharide (LPS, priming phase) at time zero. At 30 minutes, they were incubated with different concentrations of dapansutrile (OLT1177™) from 0.001-100 μM. At 4 hours, 10 μM of nigericin (NIG, release phase) was added. At the end of an 5 hour incubation period, the supernatant was harvested and assayed for IL-1β or IL-18 using respective ELISA kits following manafacturer's protocols.

[2] = system: IL-18 release from human monocytes-derived macrophages; assay: Suppression of IL-18 release from human monocytes-derived macrophages (LPS priming, nigericin release, ELISA); assay type: cell-based
Experimental: as §1

[3] = system: rats, thrombus formation in abdominal aorta; assay: Thrombus formation in anesthetized rats (abdominal aorta stenosis and compression injury); assay type: in vivo, rats (CD-1); settings: intravenous via tail vein, 5 min before injury; written in present tense
Experimental: To evaluate the effect of dapansutrile on thrombus formation in vivo, the following experimental protocol is performed.
Rats (CD-1; male; approximately 350 grams; Charles River, Raleigh, NC), are anesthetized with sodium pentobarbital (70 mg/kg i.p.). The abdomens are shaved and a 22 gauge intravenous catheter is inserted into a lateral tail vein. A midline incision is made and the intestines are wrapped in saline-soaked gauze and positioned so the abdominal aorta is accessible. […] All branches from the aorta in this section are ligated with 4-0 silk suture. A 2.5 mm diameter flow probe connected to a Transonic flow meter is placed on the artery and a baseline (pre-stenosis) flow is recorded. Two clips are placed around the artery decreasing the vessel diameter by approximately 80%. A second baseline flow measurement is taken (post-stenosis) and the hyperemic response is tested. Animals are then treated with either Rho kinase inhibitor compound or saline intravenously via tail vein catheter. Thrombosis is induced five minutes after treatment by repeated external compressions of the vessel with hemostatic forceps. Two minutes post-injury, the vessel compressions are repeated and a 10 minute period of flow monitoring is started. Animals are monitored continuously for a minimum of the first ten minutes post-injury. […]

[4] = HMDM, 1 μg/mL LPS then 10 μM nigericin, 0.001-100 μM tested
[5] = LPS/nigericin, compared to control

`CS(=O)(=O)CCC#N` [OLT1177™, 3-methanesulfonyl-propionitrile] was tested, and the “concentration of maximum suppression effect on IL-1β release” value [1, 4] was 1 µM, the “release of IL-1β from stimulated monocytes-derived macrophages” value [1, 5] was “suppresses” and the “concentration of maximum suppression effects on IL-18 release” value [2, 4] was 10 to 50 µM. The “release of IL-18 from stimulated monocytes-derived macrophages” value [2, 5] was “suppresses”, the “histological evidence of thrombosis” value [3] was “decrease” and the “vessel injury-induced flow reduction” value [3] was “decrease”.

From patent publication US12318361B2, “Methods for treating cardiovascular diseases” (Olatec Therapeutics LLC, priority 2017, dated 2025)
